Source: ChEMBL document CHEMBL1201862, “PubChem BioAssay data set” (2004)
Where a name gives a salt, the structure may show the parent alone.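 Cells were grown in 96-well plates and exposed to each compound for 48 hours at five concentrations; endpoints were interpolated linearly between bracketing concentrations, or set to the highest concentration if not reached. Here, GI50 denotes the concentration required for 50% inhibition of growth.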 Activity calls are given as the source filed them. No stated cut-off is given here; in the data, active = GI50 up to about 1.1 µM and inactive = higher.

Legend:
Test in all cases: NCI tumour cell line growth inhibition, 48 h
[1] = test system: SK-MEL-2
[2] = test system: MDA-N
[3] = test system: RPMI-8226
[4] = test system: HCT-15
[5] = test system: CAKI-1
[6] = test system: PC-3
[7] = test system: HCC 2998
[8] = test system: SNB-75
[9] = test system: SK-MEL-28
[10] = test system: KM12
[11] = test system: DU-145
[12] = test system: SR
[13] = test system: MDA-MB-231
[14] = test system: NCI-H460
[15] = test system: SF-539
[16] = test system: MOLT-4
[17] = test system: SNB-19
[18] = test system: 786-0
[19] = test system: SK-MEL-5
[20] = test system: HOP-92

| SMILES | GI50 [1] | GI50 [2] | GI50 [3] | GI50 [4] | GI50 [5] | GI50 [6] | GI50 [7] | GI50 [8] | GI50 [9] | GI50 [10] | GI50 [11] | GI50 [12] | GI50 [13] | GI50 [14] | GI50 [15] | GI50 [16] | GI50 [17] | GI50 [18] | GI50 [19] | GI50 [20] |
| --- | --- | --- | --- | --- | --- | --- | --- | --- | --- | --- | --- | --- | --- | --- | --- | --- | --- | --- | --- | --- |
| CC(=O)O/C(=C1\C[C@H]2[C@@H]3CC=C4C[C@@H](OC(C)=O)CC[C@]4(C)[C@H]3CC[C@]2(C)C1=O)C(F)(F)F | 7.62 µM (inactive) | 7.64 µM (inactive) | 4.08 µM (inactive) | 4.03 µM | 9.71 µM (inactive) | 13.5 µM (inactive) | 6.31 µM (inactive) | 21.9 µM (inactive) | 14.9 µM (inactive) | 12.7 µM (inactive) | 9.95 µM (inactive) | 2.88 µM (inactive) | 10.4 µM (inactive) | 4.7 µM (inactive) | 7.24 µM (inactive) | 2.59 µM (inactive) | 17.8 µM (inactive) | 8.53 µM (inactive) | 6.08 µM (inactive) | 8.24 µM (inactive) |
| CC(=O)NC1C(OCc2ccccc2)OC(CO)C(O)C1OC(C)C(=O)NC(C(=O)NC(CCC(=O)NCCCCNc1c2ccccc2nc2cccc([N+](=O)[O-])c12)C(N)=O)C(C)C (stereo not given) | 2.52 µM (inactive) | 1.64 µM (inactive) | 0.76 µM (active) | 3.21 µM | 3.37 µM (inactive) | 2.67 µM (inactive) | 1.01 µM (active) | 2.7 µM (inactive) | 2.67 µM (inactive) | 2.36 µM (inactive) | 2.55 µM (inactive) | 0.178 µM (active) | 2.71 µM (inactive) | 0.887 µM (active) | 3.3 µM (inactive) | 0.515 µM (active) | 4.84 µM (inactive) | 1.81 µM (inactive) | 2.22 µM (inactive) | 1.28 µM (inactive) |
| CCOC(=O)C1C2C1C1C(C(=O)OCC)C21 (stereo not given) | > 100 µM (inactive) | > 100 µM (inactive) | 50.4 µM (inactive) | > 100 µM | > 100 µM (inactive) | > 100 µM (inactive) | > 100 µM (inactive) | > 100 µM (inactive) | > 100 µM (inactive) | > 100 µM (inactive) | > 100 µM (inactive) | 52 µM (inactive) | > 100 µM (inactive) | > 100 µM (inactive) | > 100 µM (inactive) | > 100 µM (inactive) | > 100 µM (inactive) | > 100 µM (inactive) | > 100 µM (inactive) | > 100 µM (inactive) |
| O=[N+]([O-])c1ccc2sc(/C=N/c3cnccn3)cc2c1 | 23.2 µM (inactive) | 24.1 µM (inactive) | 16 µM (inactive) | 34.4 µM | 57.3 µM (inactive) | 31 µM (inactive) | 18.7 µM (inactive) | 0.861 µM (active) | 28.3 µM (inactive) | 57.5 µM (inactive) | 21.5 µM (inactive) | 14.5 µM (inactive) | 23.7 µM (inactive) | 31 µM (inactive) | 31.6 µM (inactive) | 10.7 µM (inactive) | 65 µM (inactive) | 33.5 µM (inactive) | 45.8 µM (inactive) | 60.1 µM (inactive) |
| CC(C)=CCCC(C)CCOS(=O)C(F)(F)F (stereo not given) | 16.9 µM (inactive) | 1.6 µM (inactive) | 29.4 µM (inactive) | 2.49 µM | 25.2 µM (inactive) | 18 µM (inactive) | 13.2 µM (inactive) | 20.5 µM (inactive) | 11 µM (inactive) | 88.7 µM (inactive) | 35.3 µM (inactive) | 1.92 µM (inactive) | 16.6 µM (inactive) | 16.1 µM (inactive) | 31.3 µM (inactive) | 2.58 µM (inactive) | 22.1 µM (inactive) | > 100 µM (inactive) | 15.8 µM (inactive) | 18.7 µM (inactive) |
| CCS(=O)(=O)CCn1c(=O)c2c(ncn2C)n(C)c1=O | > 100 µM (inactive) | > 100 µM (inactive) | > 100 µM (inactive) | > 100 µM | > 100 µM (inactive) | > 100 µM (inactive) | > 100 µM (inactive) | > 100 µM (inactive) | > 100 µM (inactive) | > 100 µM (inactive) | > 100 µM (inactive) | > 100 µM (inactive) | > 100 µM (inactive) | > 100 µM (inactive) | > 100 µM (inactive) | > 100 µM (inactive) | > 100 µM (inactive) | > 100 µM (inactive) | > 100 µM (inactive) | > 100 µM (inactive) |
| COc1ccc(Cc2nccc3cc(OC)c(OC)cc23)cc1OC [PAPAVERINE HYDROCHLORIDE] | > 100 µM (inactive) | 94 µM (inactive) | 36.7 µM (inactive) | 87.3 µM | 47.3 µM (inactive) | 74.3 µM (inactive) | 92.9 µM (inactive) | > 100 µM (inactive) | > 100 µM (inactive) | > 100 µM (inactive) | > 100 µM (inactive) | 19.2 µM (inactive) | 47.2 µM (inactive) | 19 µM (inactive) | 76 µM (inactive) | 47.8 µM (inactive) | 70.1 µM (inactive) | > 100 µM (inactive) | 16.6 µM (inactive) | 36.5 µM (inactive) |
